One assay has as its system Tyromyces palustris. In words: Test for wood rotting-preventing effect (mycelium growth inhibition on malt extract agar). Format: cell-based. Particulars: 28° C.±2° C., 2 to 10 days, read-out: Rotting preventing effect (mycelium growth-inhibitory rate), TYP. In short, it runs like this: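 Mycelial agar disks (4 mm) were placed on malt extract agar containing test compound at 50 ppm and grown at 28° C.±2° C. Colony diameter was measured 2-10 days after inoculation and converted to percent mycelium growth inhibition, reported as symbol grades.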

The subject of another assay is Trichoderma viride. The assay is described as above. In kind it is cell-based. Particulars: 28° C.±2° C., 2 to 10 days, read-out: Rotting preventing effect (mycelium growth-inhibitory rate), TRV. In short, it runs like this:
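Mycelial agar disks (4 mm) placed on malt extract agar containing 50 ppm test compound and cultured at 28 °C ± 2 °C. Colony diameter measured 2–10 days after inoculation; growth-inhibitory rate (%) reported as symbol grades.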

The next assay relates to Aspergillus niger. The description is as above. Format: cell-based. Particulars: 28° C.±2° C., 2 to 10 days, read-out: Rotting preventing effect (mycelium growth-inhibitory rate), ASN. In short, it runs like this: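 Mycelial agar disks (4 mm) placed on malt extract agar containing 50 ppm test compound, incubated at 28° C.±2° C. Colony diameter measured 2–10 days after inoculation; growth-inhibitory rate (%) reported as symbol-coded score.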

For assay [1], the system named is Pseudoperonospora cubensis. Description: Test for controlling effect on downy mildew of cucumber. Particulars: 168 h, 200 ppm spray, one day before inoculation, cucumber 2-leaf stage, read-out: Controlling effect (control of disease), Downy mildew of cucumber. Format: in vivo. In short, it runs like this: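 200 ppm compound sprayed on potted 2-leaf cucumber; P. cubensis zoospores spray-inoculated one day later. Plants kept 1 day in humid room at 25° C, then 6 days in greenhouse. Control computed from per-leaf infection relative to untreated plot.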

In a further assay the test system is Rhizoctonia solani. Description: Test for controlling effect on sheath blight of rice. In kind it is in vivo. Particulars: 120 h, 200 ppm spray, 24 hours after inoculation, rice 4-leaf stage, five days after inoculation, read-out: Controlling effect (control of disease), Sheath blight of rice. In short, it runs like this: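 Rice seedlings at the 4-leaf stage were inoculated with mycelium, then sprayed 24 h later with compound at 200 ppm. After air-drying, plants were held 24 h at 28 °C and 98% humidity, then moved to a greenhouse. Infected area was scored 5 days post-inoculation; control was calculated relative to untreated plants.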

The subject of assay [2] is Candida albicans IFO 1270. Description: In vitro antimycotic activity on Candida albicans. Format: cell-based. Particulars: IFO1270, 10 (ppm), SGB, 37° C., 48 hours, turbidity at 650 nm, read-out: Antimycotic activity (growth inhibitory rate), C.albicans. The procedure:
3-1 In vitro antimycotic activity on Candida albicans
Candida albicans IFO 1270 pre-cultured on a Sabouraud's glucose agar (SGA) plate medium at 37° C. […] was suspended in a sterilized physiological salt solution. The number of fungi in the resulting suspension was counted with a globulimeter, and adjusted so as to be 1×10^7 cell/ml with a sterilized physiological salt solution. This solution was used as an inoculum solution. Thereafter, 0.1 ml of this solution and 0.1 ml of a dimethyl sulfoxide (DMSO) solution of the test compound were added to 9.8 ml of Sabouraud's glucose broth (SGB), and shake-cultured at 37° C. for 48 hours. After culture, the medium turbidity was measured at 650 nm, and the growth-inhibitory rate of the fungus was calculated according to the following equation.
Growth inhibitory rate (%)=(1-W/Y)×100
Y: Medium turbidity of DMSO control group
W: Medium turbidity of test compound group
From this inhibitory rate, the antimycotic activity was shown by the symbols A to D. The test results of the test compounds are shown in Table 4.

Assay [3] relates to Aspergillus fumigatus TIMM 0063. In words: In vitro antimycotic activity on Aspergillus fumigatus. Format: cell-based. Particulars: TIMM0063, 10 (ppm), Casitone agar, 37° C., 48 hours, read-out: Antimycotic activity (growth inhibitory rate), A.fumigatus. How it is done:
3-2 In vitro antimycotic activity on Aspergillus fumigatus.
To Aspergillus fumigatus TIMM 0063 precultured at 37° C. for 48 hours on a potato dextrose agar (PDA) slant medium was added a sterilized physiological salt solution containing 0.1%(W/V) Tween 80. After conidia were made free from the solution, the solution was filtered through a sterilized two-sheet gauze to remove the mycelium mass. The number of the conidia in the resulting suspension was counted with a globulimeter and adjusted so as to be 1×10^5 conidia/ml with a sterilized physiological salt solution containing 0.1%(W/V) Tween 80. This solution was used as an inoculum solution. Casitone agar plate medium containing the DMSO solution of the test compound in a rate of 1% (V/V) was inoculated with the inoculum solution at four places thereof with a microplanter, and cultured with the medium allowed to stand at 37° C. for 48 hours. After culture, the diameter of the mycelium disks cultivated at the four inoculated parts was measured, and its mean value was obtained. The growth inhibitory rate was calculated according to the following equation, and the antimycotic activity was shown in the same manner as in Test Example 3-1.
Growth inhibitory rate (%)=(1-W'/Y')×100
Y': Diameter of mycelium disk of DMSO control group
W': Diameter of mycelium disk of test compound group

Molecules are shown by their SMILES.

In the case of `CS(=O)(=O)c1snc(OCC#CI)c1C#N` [Compound 41, 3-(3-iodo-2-propynyloxy)-4-cyano-5-methylsulfonylisothiazole], the inhibition at 50 ppm in the assay on Tyromyces palustris, with Trichoderma viride and with Aspergillus niger was 95 to 100% throughout. Also, the pest or weed control at 200 ppm in assay [1] lay within 95 to 100%; with Rhizoctonia solani, 80 to 94%. Besides, the inhibition of growth at 10 µg/mL in assay [2] and in assay [3] was 100% throughout.

Turning to `N#Cc1c(OC(F)F)nsc1SCOCC#CI` [Compound 60], the inhibition at 50 ppm in the assay on Tyromyces palustris, in the assay on Trichoderma viride and with Aspergillus niger was 95 to 100% throughout. Besides, the pest or weed control at 200 ppm (in assay [1]; in the assay with Rhizoctonia solani) was 95 to 100% throughout. In addition, the inhibition of growth at 10 µg/mL in assay [2] and in assay [3] was 100% in each case.

`N#Cc1c(OCC#CI)nsc1SC(F)F` [Compound 12, 3-(3-iodo-2-propynyloxy)-4-cyano-5-difluoromethylthioisothiazole]: the inhibition at 50 ppm with Tyromyces palustris, with Trichoderma viride and with Aspergillus niger was 95 to 100% throughout. Moreover, the pest or weed control at 200 ppm in assay [1] was 95 to 100%; in the assay with Rhizoctonia solani it was 80 to 94%. In addition, the inhibition of growth at 10 µg/mL in assay [2] and in assay [3] was 100% in each case.

Regarding `CSc1snc(OCCC#CI)c1C#N` [Compound 70], the inhibition at 50 ppm in the assay with Tyromyces palustris, with Trichoderma viride and in the assay on Aspergillus niger was 95 to 100% in each case. Moreover, the pest or weed control at 200 ppm is 80 to 94% in assay [1] and 95 to 100% in the assay with Rhizoctonia solani. Moreover, the inhibition of growth at 10 µg/mL in assay [2] and in assay [3] was 100% each time.

Regarding `N#Cc1c(OCC#CI)nsc1S(=O)(=O)C(F)F` [Compound 43], the inhibition at 50 ppm with Tyromyces palustris, in the assay with Trichoderma viride and in the assay with Aspergillus niger was 95 to 100% throughout. Moreover, the pest or weed control at 200 ppm (in assay [1]; with Rhizoctonia solani) was 95 to 100% each time. Besides, the inhibition of growth at 10 µg/mL in assay [2] and in assay [3] was 100% each time.

Take `COc1snc(OCC#CI)c1C#N` [Compound 21, 3-(3-iodo-2-propynyloxy)-4-cyano-5-methoxyisothiazole]: the inhibition at 50 ppm in the assay with Tyromyces palustris, with Trichoderma viride and in the assay with Aspergillus niger was 95 to 100% in each case. Besides, the pest or weed control at 200 ppm (in assay [1]; in the assay on Rhizoctonia solani) was 95 to 100% throughout. Besides, the inhibition of growth at 10 µg/mL in assay [2] and in assay [3] was 100% each time.

In the case of `CC(C)Oc1snc(OCC#CI)c1C#N` [Compound 23], the inhibition at 50 ppm in the assay on Tyromyces palustris, in the assay with Trichoderma viride and with Aspergillus niger was 95 to 100% throughout. For the same compound, the pest or weed control at 200 ppm was in the range of 95 to 100% in assay [1] and 80 to 94% in the assay with Rhizoctonia solani. In addition, the inhibition of growth at 10 µg/mL in assay [2] and in assay [3] was 100% each time.

Take `N#Cc1c(OC(F)F)nsc1OCCC#CI` [Compound 82]: the inhibition at 50 ppm in the assay with Tyromyces palustris, with Trichoderma viride and in the assay with Aspergillus niger was 95 to 100% in each case. The pest or weed control at 200 ppm (in assay [1]; in the assay on Rhizoctonia solani) was 95 to 100% each time. For the same compound, the inhibition of growth at 10 µg/mL in assay [2] and in assay [3] was 100% throughout.

For the compound `CSc1nsc(SCOCC#CI)c1C#N` [Compound 136], the inhibition at 50 ppm in the assay with Tyromyces palustris, in the assay on Trichoderma viride and in the assay with Aspergillus niger was 95 to 100% in each case. In addition, the results for the pest or weed control at 200 ppm (in assay [1]; with Rhizoctonia solani) were 95 to 100% and 80 to 94%, respectively. Also, the inhibition of growth at 10 µg/mL in assay [2] and in assay [3] was 100% in each case.

On to `CSc1snc(OC(C)OCC#CI)c1C#N` (stereo not shown) [Compound 119], for which the inhibition at 50 ppm with Tyromyces palustris, in the assay with Trichoderma viride and in the assay with Aspergillus niger was 95 to 100% throughout. The pest or weed control at 200 ppm in assay [1] was in the range of 95 to 100%; in the assay on Rhizoctonia solani it was 80 to 94%. Also, the inhibition of growth at 10 µg/mL in assay [2] and in assay [3] was 100% in each case.

As to `COc1nsc(OCC#CI)c1C#N` [Compound 48], the inhibition at 50 ppm in the assay with Tyromyces palustris, in the assay with Trichoderma viride and in the assay with Aspergillus niger was 95 to 100% in each case. Also, the pest or weed control at 200 ppm (in assay [1]; in the assay on Rhizoctonia solani) was 95 to 100% in each case. Moreover, the inhibition of growth at 10 µg/mL in assay [2] and in assay [3] was 100% throughout.

In the case of `CCOc1nsc(SCOCC#CI)c1C#N` [Compound 54], the inhibition at 50 ppm in the assay with Tyromyces palustris, in the assay with Trichoderma viride and with Aspergillus niger was 95 to 100% throughout. Also, the pest or weed control at 200 ppm (in assay [1]; in the assay on Rhizoctonia solani) was 95 to 100% throughout. Moreover, the inhibition of growth at 10 µg/mL in assay [2] and in assay [3] was 100% each time.

As for `N#Cc1c(OCOCC#CI)nsc1SC(F)F` [Compound 90], the inhibition at 50 ppm in the assay with Tyromyces palustris, in the assay with Trichoderma viride and in the assay with Aspergillus niger was 95 to 100% throughout. Moreover, the pest or weed control at 200 ppm (in assay [1]; in the assay with Rhizoctonia solani) was 95 to 100% throughout. For the same compound, the inhibition of growth at 10 µg/mL in assay [2] and in assay [3] was 100% each time.

Take `CN(C)c1snc(OCC#CI)c1C#N` [Compound 30, 3-(3-iodo-2-propynyloxy)-4-cyano-5-dimethylaminoisothiazole]: the inhibition at 50 ppm in the assay with Tyromyces palustris, in the assay with Trichoderma viride and with Aspergillus niger was 95 to 100% in each case. The pest or weed control at 200 ppm (in assay [1]; with Rhizoctonia solani) was 95 to 100% each time. Besides, the inhibition of growth at 10 µg/mL in assay [2] and in assay [3] was 100% in each case.

For the compound `CCOc1snc(OCOCC#CI)c1C#N` [Compound 96], the inhibition at 50 ppm in the assay with Tyromyces palustris, in the assay on Trichoderma viride and with Aspergillus niger was 95 to 100% in each case. In addition, the pest or weed control at 200 ppm (in assay [1]; in the assay on Rhizoctonia solani) was 95 to 100% throughout. Further, the inhibition of growth at 10 µg/mL in assay [2] and in assay [3] was 100% in each case.

Regarding `CSc1snc(OCC#CI)c1C#N` [Compound 1, 3-(3-iodo-2-propynyloxy)-4-cyano-5-methylthioisothiazole], the inhibition at 50 ppm fell in the range of 95 to 100% in the assay with Tyromyces palustris, 95 to 100% in the assay with Trichoderma viride and 80 to 94% in the assay with Aspergillus niger. Moreover, the values for the pest or weed control at 200 ppm (in assay [1]; in the assay with Rhizoctonia solani) were 95 to 100% and 60 to 79%, respectively. The inhibition of growth at 10 µg/mL in assay [2] and in assay [3] was 100% in each case.

The record behind these values is patent US5578622A, “Isothiazole derivatives and their uses” (Asamura Patent Office, priority 1994, dated 1996).
